The target of the assay is T1, KDM4A (Homo sapiens, UniProt O75164).
T1 construct: N-terminal His-tagged KDM4A^1-350 was purchased from BPS Biosciences; His (N); purchased BPS Biosciences
T1 sequence (O75164 1-350): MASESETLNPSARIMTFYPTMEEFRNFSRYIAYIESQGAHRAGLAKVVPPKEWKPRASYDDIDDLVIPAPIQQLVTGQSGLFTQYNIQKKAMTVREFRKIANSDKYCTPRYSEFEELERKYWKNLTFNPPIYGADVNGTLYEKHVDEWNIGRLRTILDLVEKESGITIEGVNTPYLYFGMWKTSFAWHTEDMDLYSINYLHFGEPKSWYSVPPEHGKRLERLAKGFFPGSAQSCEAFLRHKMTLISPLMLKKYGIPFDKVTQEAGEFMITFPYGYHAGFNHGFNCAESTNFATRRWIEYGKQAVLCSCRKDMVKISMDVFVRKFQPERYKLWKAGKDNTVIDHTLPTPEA
Put plainly: KDM4A Assay (SAMDI mass spectrometry demethylase assay). Particulars: N-terminal His-tagged KDM4A 1-350; class symbols; read-out: 4A IC50. It counts as biochemical. How it is done:
N-terminal His-tagged KDM4A^1-350 was purchased from BPS Biosciences. Peptides were synthesized by BioPeptide and all other reagents were purchased from Sigma-Aldrich at the highest level of purity possible. Assays were performed in a 50 μL volume in 384-well V-bottom polypropylene microplates (Greiner) at 25° C. Optimized 1× assay buffer was 50 mM HEPES (pH=8.0), 100 μM sodium ascorbate, 20 mM NaCl, 10 μM ammonium iron sulfate, 1 mM tris(2-carboxyethyl)phosphine (TCEP), 0.002% Tween-20, and 0.005% BSG. For compound screening, 35 μL of KDM4A^1-350 (final concentration, f.c.=5 nM) was added using a Multidrop Combi and preincubated with 1 μL of test compound (f.c.=10 μM) for 30 minutes and subsequently 15 μL of peptide with the following sequence NH2-ARTKQTAR(Kme2)STGGKAPRKQLA(K-Ahx-Biotin)-amide (f.c.=600 nM) and 2-oxoglutarate (f.c.=5 μM) was added by Multidrop Combi to begin the reaction. Reactions proceeded for 120 minutes and were stopped by the addition of 5 μL of formic acid (f.c.=0.5%) using a Multidrop Combi and then analyzed by SAMDI Tech Inc.
SAMDI Tech analyzed all reactions using self-assembled monoloayer desorption/ionization technology as previously described (Gerard-Levin Z A, Scholle M D, Eisenberg A H, et al.: High-throughput screening of small molecule libraries using SAMDI mass spectrometry. ACS Comb Sci 2011; 13:347-350). Briefly, a 2 μL sample of the stopped demethylase reactions were transferred to a SAMDI array coated with 384 biotin-neutravidin spots using a 384-channel pipet station. The SAMDI arrays were incubated for 1 h in a humidified chamber, followed by washing of the surface with deionized ultra-filtered water (DIUF) and drying under nitrogen. A matrix of 30 mg/ml 2′,4′,6′-Trihydroxyacetophenone monohydrate (THAP) in acetone was applied using a TPP Mosquito 1.2 μL tip by dispensing 50 nL on each of the 384 spots on the array. SAMDI-MS was run using acquisition method ReflectorPositiveUTX. The % conversion of substrate to product was calculated using the AUC of the substrate and product peptide peaks.
An IC50 value was determined by contacting various concentrations of a test compound with one of the KDM4A, KDM4C or KDMSC enzyme constructs and plotting a dose-response curve which associates the amount of inhibition of the enzyme relative to the concentration of the test compound. From the curve, the IC50 value (which represents the concentration of the test compound necessary to inhibit maximal enzymatic activity by 50%) was determined. Additionally, the slope of the linear range of the plotted curve, which indicates the speed with which the curve rises between the minimum and maximum, was calculated.

Broadly, the IC50 is the point on the concentration scale where inhibition reaches its midpoint. Take `Cc1cc(Nc2cnccc2C(=O)O)n(C2CCOCC2)n1` [Compound 78, 3-((3-methyl-1-(tetrahydro-2H-pyran-4-yl)-1H-pyrazol-5-yl)amino) isonicotinic acid]: the IC50 fell in the range of 100 to 1000 nM. For the molecule `Cc1c(Nc2cnccc2C(=O)O)cnn1[C@H]1CC[C@@H](N)CC1` [Compound 79, 3-((1-((cis)-4-aminocyclohexyl)-5-methyl-1H-pyrazol-4-yl)amino)isonicotinic acid], the IC50 lay in the range of 1 to 100 nM. Turning to `Cc1c(Nc2cnccc2C(=O)O)cnn1C1CCN(C2CCC2)CC1` [Compound 96], the IC50 was 1 to 100 nM. Regarding `Cc1nn(C2CCN(C(=O)c3ccccc3)CC2)cc1Nc1cnccc1C(=O)O` [Compound 97, 3-(1-(1-benzoylpiperidin-4-yl)-3-methyl-1H-pyrazol-4-ylamino) isonicotinic acid], the IC50 lay in the range of 1000 to 10000 nM.

With `Cc1c(Nc2cnccc2C(=O)O)cnn1C1CCN(C(=O)c2ccccc2)CC1` [Compound 98, 3-(1-(1-benzoylpiperidin-4-yl)-5-methyl-1H-pyrazol-4-ylamino) isonicotinic acid], the IC50 lay in the range of 100 to 1000 nM. Turning to `Cc1nn(C2CCN(CC(F)(F)F)CC2)cc1Nc1cnccc1C(=O)O` [Compound 99, 3-(3-methyl-1-(1-(2,2,2-trifluoroethyl)piperidin-4-yl)-1H-pyrazol-4-ylamino)isonicotinic acid], the IC50 fell in the range of 100 to 1000 nM. On to `Cc1c(Nc2cnccc2C(=O)O)cnn1C1CCN(CC(F)(F)F)CC1` [Compound 100, 3-(5-methyl-1-(1-(2,2,2-tri-fluoro-ethyl)piperidin-4-yl)-1H-pyrazol-4-ylamino)isonicotinic acid], for which the IC50 was 100 to 1000 nM.

As for `COC(=O)c1ccncc1Nc1cn(C2CCN(C(C)C)CC2)nc1C` [Compound 101, methyl 3-((1-(1-isopropylpiperidin-4-yl)-3-methyl-1H-pyrazol-4-yl)amino)isonicotinate], the IC50 is 10000 to 100000 nM. Take `Cc1nn(C2CCN(C(C)C)CC2)cc1Nc1cnccc1C(=O)O` [Compound 102, 3-((1-(1-isopropylpiperidin-4-yl)-3-methyl-1H-pyrazol-4-yl)amino)isonicotinic acid]: the 50% inhibitory concentration (IC50) was in the range of 100 to 1000 nM. Regarding `COC(=O)c1ccncc1Nc1cnn(C2CCN(C(C)C)CC2)c1C` [Compound 103, methyl 3-((1-(1-isopropylpiperidin-4-yl)-5-methyl-1H-pyrazol-4-yl)amino)isonicotinate], the concentration for half-maximal inhibition (IC50) lay in the range of 10000 to 100000 nM.

Take `Cc1c(Nc2cnccc2C(=O)O)cnn1C1CCN(C(C)C)CC1` [Compound 104]: the IC50 was in the range of 100 to 1000 nM. As to `Cc1nn(CCN(C)C)cc1Nc1cnccc1C(=O)O` [Compound 107, 3-(1-(2-(dimethylamino)ethyl)-3-methyl-1H-pyrazol-4-ylamino) isonicotinic acid], the IC50 was in the range of 100 to 1000 nM. As to `Cc1nn(C2CCCN(C)CC2)cc1Nc1cnccc1C(=O)O` (centres unmarked) [Compound 111, 3-(3-methyl-1-(1-methylazepan-4-yl)-1H-pyrazol-4-ylamino) isonicotinic acid], the IC50 fell in the range of 100 to 1000 nM. As for `Cc1c(Nc2cnccc2C(=O)O)cnn1C1CCCN(C)CC1` (centres unmarked) [Compound 112, 3-((5-methyl-1-(1-methylazepan-4-yl)-1H-pyrazol-4-yl)amino)isonicotinic acid], the concentration for half-maximal inhibition (IC50) is 100 to 1000 nM.

For the origin of these results see patent publication US20170291890A1 (Epizyme, Inc., priority 2014, published 2017).
